Source: PubChem BioAssay AID256 (DTP/NCI, 2004)
Where “and” joins values, the source holds several entries; their conditions need not be identical. Equal values may be shown once. Toxic doses and inconclusive results are not listed. Rule for the calls: active = survival T/C of 150% or more; inactive = T/C below 125% in these data.

System: CD2F1 mice, L1210 leukemia ip, survival T/C
Experiment: NCI In Vivo Anticancer Drug Screen. Data for tumor model L1210 Leukemia (intraperitoneal) in CD2F1 (CDF1) mice
Conditions: endpoint: mean survival time, higher = longer survival
Outline: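 Implant tumor; dose compound or vehicle; measure endpoint in both groups; report treated divided by control.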

[1] = dose: 100.0 mg/kg/injection, schedule: Q01DX001 (ip), vehicle: saline
[2] = dose: 100.0 mg/kg/injection, schedule: Q04DX003 (ip), vehicle: saline
[3] = dose: 100.0 mg/kg/injection, schedule: Q04DX003 (ip), vehicle: saline with Tween-80
[4] = dose: 200.0 mg/kg/injection, schedule: Q04DX003 (ip), vehicle: saline with Tween-80
[5] = dose: 400.0 mg/kg/injection, schedule: Q04DX003 (ip), vehicle: saline with Tween-80
[6] = dose: 100.0 mg/kg/injection, schedule: Q01DX009 (ip), vehicle: saline with Tween-80
[7] = dose: 200.0 mg/kg/injection, schedule: Q01DX009 (ip), vehicle: saline with Tween-80
[8] = dose: 400.0 mg/kg/injection, schedule: Q01DX009 (ip), vehicle: saline with Tween-80
[9] = dose: 100.0 mg/kg/injection, schedule: Q04DX003 (ip), vehicle: Klucel (hydroxypropylcellulose) (HPC)
[10] = dose: 200.0 mg/kg/injection, schedule: Q04DX003 (ip), vehicle: Klucel (hydroxypropylcellulose) (HPC)
[11] = dose: 100.0 mg/kg/injection, schedule: Q01DX009 (ip), vehicle: Klucel (hydroxypropylcellulose) (HPC)
[12] = dose: 200.0 mg/kg/injection, schedule: Q01DX009 (ip), vehicle: Klucel (hydroxypropylcellulose) (HPC)
[13] = dose: 400.0 mg/kg/injection, schedule: Q01DX009 (ip), vehicle: Klucel (hydroxypropylcellulose) (HPC)

Measured: T/C

c1ccc2c(c1)[nH]c1c3[n+](ccc12)CCCC3
inactive: [1] 119 % of control

N#CCC(=O)NN=C1CCCCC1
inactive: [1] 102 % of control | dose: 200.0 mg/kg/injection, schedule: Q01DX001 (ip), vehicle: saline 123 % of control | dose: 400.0 mg/kg/injection, schedule: Q01DX001 (ip), vehicle: saline 107 % of control

O=C(O)C1OC12CCCCC2 (configuration not stated)
inactive: dose: 100.0 mg/kg/injection, schedule: Q01DX009 (ip), vehicle: saline 96 % of control | [2] 100 % of control | dose: 200.0 mg/kg/injection, schedule: Q01DX009 (ip), vehicle: saline 101 % of control | dose: 200.0 mg/kg/injection, schedule: Q04DX003 (ip), vehicle: saline 101 % of control | dose: 400.0 mg/kg/injection, schedule: Q01DX009 (ip), vehicle: saline 100 % of control | dose: 400.0 mg/kg/injection, schedule: Q04DX003 (ip), vehicle: saline 103 % of control

CCCCCCCC(=O)N1C(=O)CCC1C(=O)O (configuration not stated)
inactive: dose: 100.0 mg/kg/injection, schedule: Q01DX001 (ip), vehicle: Klucel (hydroxypropylcellulose) (HPC) 100 % of control | dose: 200.0 mg/kg/injection, schedule: Q01DX001 (ip), vehicle: Klucel (hydroxypropylcellulose) (HPC) 100 % of control | dose: 400.0 mg/kg/injection, schedule: Q01DX001 (ip), vehicle: Klucel (hydroxypropylcellulose) (HPC) 104 % of control

N/C(=N\N=C1CCCC1)N[N+](=O)[O-]
inactive: [3] 96 % of control | [4] 102 % of control | [5] 104 % of control

Cc1ccc(S(=O)(=O)OC2C(COCC(=O)O)OC3OC(C)(C)OC32)cc1 (configuration not stated)
inactive: [6] 95 % of control | [3] 98 % of control | [7] 93 % of control | [4] 101 % of control | [8] 90 % of control | [5] 93 % of control

O=C(O)/C=C/C(=O)O
inactive: dose: 100.0 mg/kg/injection, schedule: Q01DX001 (ip), vehicle: saline with Tween-80 93 % of control and 88 % of control | [3] 100 % of control | dose: 200.0 mg/kg/injection, schedule: Q01DX001 (ip), vehicle: saline with Tween-80 94 % of control | dose: 400.0 mg/kg/injection, schedule: Q01DX001 (ip), vehicle: saline with Tween-80 91 % of control

CCCCOC(=O)c1ccccc1Cl
inactive: dose: 50.0 mg/kg/injection, schedule: Q04DX003 (ip), vehicle: Klucel (hydroxypropylcellulose) (HPC) 94 % of control | [9] 100 % of control | [10] 102 % of control

CC(=Nc1ccccc1)c1cccs1
inactive: [3] 95 % of control | [4] 101 % of control | [5] 87 % of control

CCC1OCC(C(Cl)CCl)O1 (configuration not stated)
inactive: dose: 12.5 mg/kg/injection, schedule: Q01DX009 (ip), vehicle: Klucel (hydroxypropylcellulose) (HPC) 94 % of control and 101 % of control | dose: 25.0 mg/kg/injection, schedule: Q01DX009 (ip), vehicle: Klucel (hydroxypropylcellulose) (HPC) 99 % of control and 102 % of control | dose: 50.0 mg/kg/injection, schedule: Q01DX009 (ip), vehicle: Klucel (hydroxypropylcellulose) (HPC) 95 % of control and 96 % of control | [11] 94 % of control and 107 % of control | [12] 90 % of control and 91 % of control | [13] 87 % of control

COC(CCC#N)c1ccc(Cl)cc1 (configuration not stated)
inactive: [6] 95 % of control | [3] 97 % of control | [7] 101 % of control | [4] 102 % of control | [8] 96 % of control | [5] 98 % of control

CCN(CC)CCCNC1=C(Cl)C(=O)c2ccccc2C1=O
inactive: dose: 6.25 mg/kg/injection, schedule: Q01DX009 (ip), vehicle: saline with Tween-80 100 % of control | dose: 12.5 mg/kg/injection, schedule: Q01DX009 (ip), vehicle: saline with Tween-80 94 % of control | dose: 25.0 mg/kg/injection, schedule: Q01DX009 (ip), vehicle: saline with Tween-80 103 % of control

Cc1cc2cc3n(c2nn1)N=C(Cl)CC3
inactive: dose: 61.87 mg/kg/injection, schedule: Q04DX002 (ip), vehicle: Klucel (hydroxypropylcellulose) (HPC) 103 % of control | dose: 100.0 mg/kg/injection, schedule: Q04DX002 (ip), vehicle: Klucel (hydroxypropylcellulose) (HPC) 101 % of control | dose: 123.75 mg/kg/injection, schedule: Q04DX002 (ip), vehicle: Klucel (hydroxypropylcellulose) (HPC) 105 % of control | dose: 200.0 mg/kg/injection, schedule: Q04DX002 (ip), vehicle: Klucel (hydroxypropylcellulose) (HPC) 103 % of control | dose: 247.5 mg/kg/injection, schedule: Q04DX002 (ip), vehicle: Klucel (hydroxypropylcellulose) (HPC) 109 % of control

[O-][n+]1cc(-c2ccccc2)cc2ccccc21
inactive: dose: 50.0 mg/kg/injection, schedule: Q04DX003 (ip), vehicle: saline with Tween-80 97 % of control | [3] 97 % of control

CCCC1CC[N-]CC1.CCCC1CC[N-]CC1.CCCC1CC[N-]CC1.CCCC1CC[N-]CC1.CS(C)=O.CS(C)=O.[Cl-].[Cl-].[Cl-].[Cl-].[Cl][Rh][Cl].[Rh+3]
inactive: dose: 6.25 mg/kg/injection, schedule: Q01DX009 (ip), vehicle: water 98 % of control | dose: 12.5 mg/kg/injection, schedule: Q01DX009 (ip), vehicle: water 112 % of control | dose: 25.0 mg/kg/injection, schedule: Q04DX003 (ip), vehicle: water 120 % of control

COc1cc(OC)c(NC(=O)Nc2ccc(Nc3ccccc3)cc2)cc1Cl
inactive: dose: 50.0 mg/kg/injection, schedule: Q01DX009 (ip), vehicle: saline with Tween-80 90 % of control | [6] 94 % of control | [7] 90 % of control

CC(C)C(NC(=O)OC(C)(C)C)C(=O)ON1C(=O)CCC1=O (configuration not stated)
inactive: [3] 104 % of control | [4] 100 % of control

O=C(N/N=C/c1ccc(Cl)c(Cl)c1)c1ccccc1
inactive: [11] 94 % of control | [9] 96 % of control | [12] 90 % of control | [10] 88 % of control | [13] 89 % of control | dose: 400.0 mg/kg/injection, schedule: Q04DX003 (ip), vehicle: Klucel (hydroxypropylcellulose) (HPC) 97 % of control

Cc1ccc(C2(O)c3ccccc3C(=O)N2c2ccccc2C)cc1 (configuration not stated)
inactive: [6] 100 % of control | [3] 104 % of control | [7] 93 % of control | [4] 104 % of control | [8] 102 % of control | [5] 106 % of control

COC(=O)C1C2CC3c4[nH]c5cc(OC)c(Br)cc5c4CCN3CC2CC(OC(=O)c2cc(OC)c(OC)c(OC)c2)C1OC (configuration not stated)
inactive: dose: 75.0 mg/kg/injection, schedule: Q01DX001 (ip), vehicle: saline 92 % of control | dose: 150.0 mg/kg/injection, schedule: Q01DX001 (ip), vehicle: saline 103 % of control | dose: 300.0 mg/kg/injection, schedule: Q01DX001 (ip), vehicle: saline 105 % of control

Cc1ccccc1OP(=O)(c1ccccc1)c1ccccc1
inactive: [3] 100 % of control | [4] 105 % of control | [5] 110 % of control

N#Cc1cccc(/C=C/c2ccc(S(=O)(=O)F)cc2)c1
inactive: dose: 100.0 mg/kg/injection, schedule: Q01DX001 (ip), vehicle: other 95 % of control and 102 % of control | dose: 100.0 mg/kg/injection, schedule: Q04DX002 (ip), vehicle: other 92 % of control and 98 % of control | dose: 100.0 mg/kg/injection, schedule: Q04DX003 (ip), vehicle: other 100 % of control and 111 % of control | dose: 200.0 mg/kg/injection, schedule: Q01DX001 (ip), vehicle: other 88 % of control and 102 % of control | dose: 200.0 mg/kg/injection, schedule: Q04DX002 (ip), vehicle: other 101 % of control and 107 % of control | dose: 200.0 mg/kg/injection, schedule: Q04DX003 (ip), vehicle: other 99 % of control and 105 % of control | dose: 400.0 mg/kg/injection, schedule: Q01DX001 (ip), vehicle: other 92 % of control and 103 % of control | dose: 400.0 mg/kg/injection, schedule: Q04DX002 (ip), vehicle: other 93 % of control and 107 % of control

C[C@]12CC[C@H](O)C[C@@H]1CC[C@@H]1[C@@H]2C(=O)C[C@@]2(C)[C@H]1CC[C@]2(O)C(=O)CBr
inactive: dose: 100.0 mg/kg/injection, schedule: Q01DX009 (sc), vehicle: steriod suspending solution 97 % of control | dose: 100.0 mg/kg/injection, schedule: Q04DX003 (sc), vehicle: steriod suspending solution 97 % of control | dose: 200.0 mg/kg/injection, schedule: Q01DX009 (sc), vehicle: steriod suspending solution 94 % of control | dose: 200.0 mg/kg/injection, schedule: Q04DX003 (sc), vehicle: steriod suspending solution 95 % of control | dose: 400.0 mg/kg/injection, schedule: Q01DX009 (sc), vehicle: steriod suspending solution 90 % of control | dose: 400.0 mg/kg/injection, schedule: Q04DX003 (sc), vehicle: steriod suspending solution 95 % of control

CCCCCCCCCCP(=O)(OCCCC)OCCCC
inactive: dose: 25.0 mg/kg/injection, schedule: Q04DX003 (ip), vehicle: saline 102 % of control | dose: 50.0 mg/kg/injection, schedule: Q04DX003 (ip), vehicle: saline 102 % of control | [2] 100 % of control
